Test results as given in PubChem BioAssay AID256 (DTP/NCI, 2004).
Values joined by “and” are separate entries in the source; they are usually repeats but may differ in a detail not shown here. Equal values may be shown once. Toxic doses and inconclusive results are not listed. The calls were made as follows: active = survival T/C of 150% or more; inactive = T/C below 125% in these data.

Tested on: CD2F1 mice, L1210 leukemia ip, survival T/C
Assay: NCI In Vivo Anticancer Drug Screen. Data for tumor model L1210 Leukemia (intraperitoneal) in CD2F1 (CDF1) mice
Details: higher = longer survival
In short: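 Tumor-bearing mice (transplanted tumor) were split into treated and vehicle control groups, and the measured endpoint of each treated group was divided by that of its vehicle controls.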

[1] = endpoint: mean survival time, dose: 100.0 mg/kg/injection, schedule: Q01DX009 (ip), vehicle: saline with Tween-80
[2] = endpoint: mean survival time, dose: 200.0 mg/kg/injection, schedule: Q01DX009 (ip), vehicle: saline with Tween-80
[3] = endpoint: mean survival time, dose: 400.0 mg/kg/injection, schedule: Q01DX009 (ip), vehicle: saline with Tween-80
[4] = endpoint: mean survival time, dose: 100.0 mg/kg/injection, schedule: Q04DX003 (ip), vehicle: saline with Tween-80
[5] = endpoint: mean survival time, dose: 200.0 mg/kg/injection, schedule: Q04DX003 (ip), vehicle: saline with Tween-80
[6] = endpoint: mean survival time, dose: 400.0 mg/kg/injection, schedule: Q04DX003 (ip), vehicle: saline with Tween-80

Measured: T/C

O=c1[nH]cnc2n[nH]c(Br)c12
inactive: endpoint: median survival time, dose: 50.0 mg/kg/injection, schedule: Q01DX005 (ip), vehicle: saline with Tween-80 107 % of control | endpoint: median survival time, dose: 100.0 mg/kg/injection, schedule: Q01DX005 (ip), vehicle: saline with Tween-80 111 % of control | endpoint: median survival time, dose: 200.0 mg/kg/injection, schedule: Q01DX005 (ip), vehicle: saline with Tween-80 119 % of control

[I][Pt+2][I].[NH-]c1ccc(S(=O)(=O)Nc2ccccn2)cc1.[NH-]c1ccc(S(=O)(=O)Nc2ccccn2)cc1
inactive: endpoint: mean survival time, dose: 20.31 mg/kg/injection, schedule: Q04DX003 (ip), vehicle: saline with Tween-80 105 % of control | endpoint: mean survival time, dose: 40.63 mg/kg/injection, schedule: Q04DX003 (ip), vehicle: saline with Tween-80 105 % of control | endpoint: mean survival time, dose: 81.25 mg/kg/injection, schedule: Q04DX003 (ip), vehicle: saline with Tween-80 90 % of control | endpoint: mean survival time, dose: 162.5 mg/kg/injection, schedule: Q04DX003 (ip), vehicle: saline with Tween-80 94 % of control | endpoint: mean survival time, dose: 325.0 mg/kg/injection, schedule: Q04DX003 (ip), vehicle: saline with Tween-80 102 % of control

O=[N+]([O-])O.[NH2-].[NH2-].[NH2-].[NH2-].[OH-].[OH-].[Pt+4].[Pt+4]
inactive: endpoint: mean survival time, dose: 2.5 mg/kg/injection, schedule: Q04DX003 (ip), vehicle: water 89 % of control | endpoint: mean survival time, dose: 5.0 mg/kg/injection, schedule: Q04DX003 (ip), vehicle: water 97 % of control | endpoint: median survival time, dose: 0.15 mg/kg/injection, schedule: Q04DX003 (ip), vehicle: water 97 % of control | endpoint: median survival time, dose: 0.31 mg/kg/injection, schedule: Q04DX003 (ip), vehicle: water 97 % of control

[N-]=C=S.[N-]=C=S.[NH-]N.[NH-]N.[Zn]
inactive: endpoint: mean survival time, dose: 25.0 mg/kg/injection, schedule: Q04DX002 (ip), vehicle: saline with Tween-80 96 % of control | endpoint: mean survival time, dose: 50.0 mg/kg/injection, schedule: Q04DX002 (ip), vehicle: saline with Tween-80 100 % of control | endpoint: mean survival time, dose: 100.0 mg/kg/injection, schedule: Q04DX002 (ip), vehicle: saline with Tween-80 102 % of control

CNC(=O)NNC(=O)c1ccccc1Cl
inactive: [1] 88 % of control | [2] 108 % of control | [3] 98 % of control

O=S(c1ccc(O)cc1)c1ccc(O)cc1
inactive: endpoint: mean survival time, dose: 50.0 mg/kg/injection, schedule: Q01DX009 (ip), vehicle: saline with Tween-80 90 % of control | [1] 94 % of control

OC1CNCc2cc3c(cc21)OCO3 (configuration not stated)
inactive: endpoint: mean survival time, dose: 100.0 mg/kg/injection, schedule: Q01DX001 (ip), vehicle: saline 107 % of control | endpoint: mean survival time, dose: 200.0 mg/kg/injection, schedule: Q01DX001 (ip), vehicle: saline 104 % of control

COC(=O)c1ccc(SCC2=Nc3c(nc(N)[nH]c3=O)NCC2)cc1
inactive: endpoint: mean survival time, dose: 0.38 mg/kg/injection, schedule: Q01DX009 (ip), vehicle: distilled water + Tween-80 100 % of control | endpoint: mean survival time, dose: 0.75 mg/kg/injection, schedule: Q01DX009 (ip), vehicle: distilled water + Tween-80 101 % of control | endpoint: mean survival time, dose: 1.5 mg/kg/injection, schedule: Q01DX009 (ip), vehicle: distilled water + Tween-80 105 % of control | endpoint: mean survival time, dose: 3.0 mg/kg/injection, schedule: Q01DX009 (ip), vehicle: distilled water + Tween-80 100 % of control | endpoint: mean survival time, dose: 6.0 mg/kg/injection, schedule: Q01DX009 (ip), vehicle: distilled water + Tween-80 101 % of control | endpoint: mean survival time, dose: 12.0 mg/kg/injection, schedule: Q01DX009 (ip), vehicle: distilled water + Tween-80 93 % of control | endpoint: mean survival time, dose: 48.0 mg/kg/injection, schedule: Q01DX009 (ip), vehicle: distilled water + Tween-80 88 % of control

CSCS(=O)C[C@H](CO)NC(=O)/C=C/c1c(C)[nH]c(=O)[nH]c1=O (some centres not stated)
inactive: endpoint: mean survival time, dose: 0.03 mg/kg/injection, schedule: Q01DX009 (ip), vehicle: saline 104 % of control | endpoint: mean survival time, dose: 0.06 mg/kg/injection, schedule: Q01DX009 (ip), vehicle: saline 103 % of control | endpoint: mean survival time, dose: 0.08 mg/kg/injection, schedule: Q01DX009 (ip), vehicle: water 105 % of control and 110 % of control | endpoint: mean survival time, dose: 0.13 mg/kg/injection, schedule: Q01DX009 (ip), vehicle: saline 101 % of control | endpoint: mean survival time, dose: 0.13 mg/kg/injection, schedule: Q01DX010 (ip), vehicle: saline 102 % of control and 111 % of control | endpoint: mean survival time, dose: 0.15 mg/kg/injection, schedule: Q01DX009 (ip), vehicle: water 115 % of control and 110 % of control | endpoint: mean survival time, dose: 0.25 mg/kg/injection, schedule: Q01DX009 (ip), vehicle: saline 115 % of control | endpoint: mean survival time, dose: 0.25 mg/kg/injection, schedule: Q01DX010 (ip), vehicle: saline 113 % of control and 114 % of control | endpoint: mean survival time, dose: 0.3 mg/kg/injection, schedule: Q01DX009 (ip), vehicle: water 116 % of control | endpoint: mean survival time, dose: 0.5 mg/kg/injection, schedule: Q01DX009 (ip), vehicle: saline 114 % of control | endpoint: mean survival time, dose: 0.5 mg/kg/injection, schedule: Q01DX010 (ip), vehicle: saline 119 % of control and 112 % of control | endpoint: mean survival time, dose: 0.6 mg/kg/injection, schedule: Q01DX009 (ip), vehicle: water 101 % of control | endpoint: mean survival time, dose: 1.0 mg/kg/injection, schedule: Q01DX010 (ip), vehicle: saline 108 % of control

CCOC(=O)C12CCCCC1=CC1(CC2)SCCS1 (configuration not stated)
inactive: endpoint: mean survival time, dose: 100.0 mg/kg/injection, schedule: Q04DX003 (ip), vehicle: acetone 93 % of control | endpoint: mean survival time, dose: 200.0 mg/kg/injection, schedule: Q04DX003 (ip), vehicle: acetone 91 % of control | endpoint: mean survival time, dose: 400.0 mg/kg/injection, schedule: Q04DX003 (ip), vehicle: acetone 86 % of control

C=C(C)C12CC(COC(=O)c3ccccc3)C34OC5(OC1C3C1OC1(CO)C(O)C1(O)C(OC(=O)c3ccccc3)C(C)C(C(C)CCCCCCC5O)C14)O2 (configuration not stated)
inactive: endpoint: mean survival time, dose: 1.5 micrograms/kg/injection, schedule: Q01DX009 (ip), vehicle: saline 103 % of control | endpoint: mean survival time, dose: 3.1 micrograms/kg/injection, schedule: Q01DX009 (ip), vehicle: saline 98 % of control | endpoint: mean survival time, dose: 6.2 micrograms/kg/injection, schedule: Q01DX009 (ip), vehicle: saline 97 % of control | endpoint: mean survival time, dose: 12.5 micrograms/kg/injection, schedule: Q01DX009 (ip), vehicle: saline 98 % of control

CCOC(=O)/C(=C(\[O-])OCC)[n+]1ccccc1
inactive: [4] 97 % of control | [5] 100 % of control | [6] 100 % of control

COC(=C\c1ccccc1)/C(=N/Nc1ccc([N+](=O)[O-])cc1[N+](=O)[O-])c1ccccc1
inactive: endpoint: mean survival time, dose: 100.0 mg/kg/injection, schedule: Q01DX001 (ip), vehicle: saline with Tween-80 101 % of control | endpoint: mean survival time, dose: 200.0 mg/kg/injection, schedule: Q01DX001 (ip), vehicle: saline with Tween-80 109 % of control | endpoint: mean survival time, dose: 400.0 mg/kg/injection, schedule: Q01DX001 (ip), vehicle: saline with Tween-80 109 % of control

CCCCC(CCC)(CCN)CCCC
inactive: endpoint: mean survival time, dose: 3.0 mg/kg/injection, schedule: Q01DX009 (ip), vehicle: saline 106 % of control | endpoint: mean survival time, dose: 6.0 mg/kg/injection, schedule: Q01DX009 (ip), vehicle: saline 98 % of control | endpoint: mean survival time, dose: 12.0 mg/kg/injection, schedule: Q01DX009 (ip), vehicle: saline 104 % of control | endpoint: mean survival time, dose: 12.5 mg/kg/injection, schedule: Q04DX003 (ip), vehicle: saline 103 % of control

Nc1ncnc2nc(C3COCCO3)[nH]c12 (configuration not stated)
inactive: endpoint: mean survival time, dose: 12.5 mg/kg/injection, schedule: Q01DX005 (ip), vehicle: distilled water + Tween-80 90 % of control | endpoint: mean survival time, dose: 25.0 mg/kg/injection, schedule: Q01DX005 (ip), vehicle: distilled water + Tween-80 94 % of control | endpoint: mean survival time, dose: 50.0 mg/kg/injection, schedule: Q01DX005 (ip), vehicle: distilled water + Tween-80 94 % of control | endpoint: mean survival time, dose: 100.0 mg/kg/injection, schedule: Q01DX005 (ip), vehicle: distilled water + Tween-80 96 % of control | endpoint: mean survival time, dose: 200.0 mg/kg/injection, schedule: Q01DX005 (ip), vehicle: distilled water + Tween-80 104 % of control

CCCCCCCCCC[n+]1ccc(C#N)cc1
inactive: endpoint: mean survival time, dose: 9.38 mg/kg/injection, schedule: Q01DX001 (ip), vehicle: saline 101 % of control | endpoint: mean survival time, dose: 18.75 mg/kg/injection, schedule: Q01DX001 (ip), vehicle: saline 103 % of control

S=C(Sc1ccccc1)Sc1ccccc1
inactive: [1] 88 % of control | [4] 92 % of control | [2] 95 % of control | [5] 103 % of control | [3] 91 % of control | [6] 104 % of control
